The subject of one series is isolated rat atria. In words: Bioassay for positive inotropic effect on isolated rat atria. The class given is cell-based. The source says:
The sea anemones are homogenized and extracted with water or with a solution of water and a water miscible organic solvent. The crude extract, containing anthopleurin-B, is subjected to gel filtration to give a forty-fold increase in purity of anthopleurin-B. Alternatively, semipermeable membranes may be used to accomplish the results obtained by gel filtration. Cation exchange chromatography provides an excellent separation of anthopleurin-B in a purity of about 30-40% depending on the particular collection of anemones. […] To obtain analytically pure salt-free material the above material is further purified by gel filtration, cation-exchange chromatography and gel adsorption chromatography. All the separation procedures in the present invention are monitored by bioassay using the isolated rat atria for determination of positive inotropic effect using the procedure described in the section headed Bioassay.
Bioassays of the solutions containing anthopleurin-B are performed on isolated atria of rat hearts. […]
The spontaneously beating atrial preparation is connected by a thin silk thread to a force-displacement transducer (Grass Model FT.03), and the contractile movements are recorded on a six-channel polygraph Grass Model 7. […]

Series [1] in a line: Solubility in deionized water. The class given is physicochemical.
The next series can be described thus: Stability (pH, storage). It counts as physicochemical.
The next series can be described thus: Isoelectric focusing. The class given is physicochemical. The source says:
For the purpose of obtaining electrophoretic and amino acid analysis the anthopleurin-B obtained in Example 1, below, was rechromatographed on CM Sephadex C-25, Sephadex G-50 and G-10 according to the process set forth in Example 1, Steps c, d and e, respectively. The doubly purified material was subject to electrophoretic analysis using commercially available pre-cast 12% acrylamide gels and matched buffer systems obtained from Bio.Rad Laboratories, 32nd and Griffin, Richmond, California.
Isoelectric focusing gave the isoelectric point at a pH=9.05. Disc gel electrophoresis with 12% polyacrylamide gel at pH 3.6 gave an Rf value of 0.64 versus methyl green tracking dye. […] Sodium dodecyl sulfate (SDS) disc gel electrophoresis using a 10% gel indicated a m.w. of about 5,200 after incubation with dithioerythritol, using RNase A and pancreatic trypsin inhibitor (PTI) for comparison. The molecular weight is so low that these values are only approximate. […] Acid hydrolysis indicated the approximate following amino acid composition: (Asp or Asn)5, Thr1 Ser4, (Glu or Gln)1, Pro5, Gly7, Ala2, (Cys/2)6 Val1, Ile2, Leu2, Tyr1, Phe1, Lys3, His2, Arg2, Trp2.

Turning to anthopleurin-B [AP-B], the “potency in positive inotropic effect relative to ouabain” value with isolated rat atria (as potent as ouabain) was 200-1000 x. Further, in the series on isolated rat atria (isolated rat atria, beat rate), the chronotropic effect result is recorded as “does not show any chronotropic effect”. The solubility entry in series [1] is recorded as “very soluble”. Besides, the storage stability entry in the series “Stability (pH, storage)” (-20° C. for a year, as lyophilized fraction C or fraction G) was “no signs of deterioration”. Also, in the series “Stability (pH, storage)” (neutral and lower pH values), the “stability versus pH” value is listed as “relatively stable”. Besides, the “stability of dry form” value in “Stability (pH, storage)” (sterile powdered lyophilized, room temperature) was “stable at room temperature”. Further, the isoelectric point in “Isoelectric focusing” is reported as 9.05 pH.

The values above are taken from patent US4166113A, “Cardiotonic agent” (University of Hawaii, priority 1978, dated 1979).
